Laboratory results taken from patent publication US7829560B2, “1,4-disubstituted naphthalenes as inhibitors of P38 MAP kinase” (Arqule, Inc., priority 2004, dated 2010).
Several values for one entry are separate records, joined by “and”; a condition that tells them apart may be missing. Equal entries are not always repeated.

Legend:
[1] = tested on: TNFα release from THP-1 cells; assay: Inhibition of TNFα release from LPS-stimulated THP-1 cells, ELISA; assay type: cell-based; conditions: Homo sapiens, THP-1, THP-1 cells, read-out: [CELL] THP-1, IC50, TNF ALPHA, ELISA
Method in brief: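 Human THP-1 monocytes, 10^6 cells/ml in RPMI with 10% FBS, no serum or 1% HSA, preincubated 30 min at 37 °C with compound (≤0.5% DMSO), then stimulated with 10 μg/ml LPS for 18 h. Supernatant TNFα measured by ELISA; IC50 from non-linear dose-response regression.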

p38α = biological target: T1, p38α (Homo sapiens, UniProt Q16539); assay: p38 MAP Kinase assay: inhibition of ATF2 phosphorylation, ELISA; assay type: biochemical; conditions: for IC50: ATF2 phosphorylation, read-out: [ENZ] P38 ALPHA, IC50, ELISA; for inhibition at 10 µM: substrate ATF2, read-out: [ENZ] P38 ALPHA, PCT INH, ELISA (10 uM;ATF2) (Percent)
T1 construct: p38 MAP Kinases are recombinant human full-length proteins with an amino-terminal GST fusion; GST (N); purchased Upstate Biotechnology Inc; host or cells: E. coli
Method in brief: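 GST-tagged full-length human p38 MAP kinase with GST-ATF2 (aa 19–96; 1.25 μM) and 40 μM ATP in HEPES pH 7.5 buffer, without (Method I) or with (Method II) 1% human serum albumin. Compound pre-incubated 15 min at room temperature; reaction 30 min at 37 °C; ATF2 Thr69 phosphorylation measured by ELISA (A450).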

T1 sequence (Q16539 whole entry, the tested form may be a part): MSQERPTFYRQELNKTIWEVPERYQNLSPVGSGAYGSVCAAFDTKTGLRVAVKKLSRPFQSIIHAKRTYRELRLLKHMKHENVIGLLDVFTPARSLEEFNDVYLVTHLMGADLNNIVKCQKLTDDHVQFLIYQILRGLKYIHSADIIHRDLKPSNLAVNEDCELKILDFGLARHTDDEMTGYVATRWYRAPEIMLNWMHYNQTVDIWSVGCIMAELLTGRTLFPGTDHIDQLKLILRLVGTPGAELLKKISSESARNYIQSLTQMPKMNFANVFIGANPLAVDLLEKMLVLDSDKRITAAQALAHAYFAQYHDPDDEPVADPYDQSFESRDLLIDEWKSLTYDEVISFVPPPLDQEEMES

SMILES | IC50 [1] [µM] | melting point [°C] | IC50 (p38α) | inhibition at 10 µM (p38α) [%]
O=C(Nc1ccc(Oc2ccnc(NCCN3CCCC3)n2)c2ccccc12)c1cc(F)cc(N2CCCCC2)c1 [Compound B389, 3-Fluoro-5-piperidin-1-yl-N-[4-({2-[(2-pyrrolidin-1-ylethyl)amino]pyrimidin-4-yl}oxy)-1-naphthyl]benzamide] | 0.089 | 92 to 94 | 0.0021 µM | 
O=C(Nc1ccc(OCc2ccncc2)c2ccccc12)c1cc(F)cc(N2CCOCC2)c1 [Compound B191, 3-Fluoro-5-morpholin-4-yl-N-[4-(pyridin-4-ylmethoxy)-1-naphthyl]benzamide] |  | 157 to 159 | 0.0527 µM and 0.061 µM | 
CC(=O)N1CCN(CCCOc2ccc(NC(=O)c3cc(F)cc(N4CCCCC4)c3)c3ccccc23)CC1 [Compound B165, N-{4-[3-(4-Acetyl-piperazin-1-yl)-propoxy]-naphthalen-1-yl}-3-fluoro-5-piperidin-1-yl-benzamide] | > 10 | 210 to 211 | 0.997 µM | 84
CC1CCC(Nc2nccc(Oc3ccc(NC(=O)c4cc(F)cc(N5CCCCC5)c4)c4ccccc34)n2)CC1 (centres unmarked) [Compound B388, 3-Fluoro-N-[4-({2-[(4-methylcyclohexyl)amino]pyrimidin-4-yl}oxy)-1-naphthyl]-5-piperidin-1-ylbenzamide] | 0.103 | 101 to 102 | 0.0427 µM | 
O=C(Nc1ccc(Oc2ccnc(N3CCC3)n2)c2ccccc12)c1cc(F)cc(N2CCOCC2)c1 [Compound B363, N-{4-[(2-azetidin-1-ylpyrimidin-4-yl)oxy]-1-naphthyl}-3-fluoro-5-morpholin-4-ylbenzamide] | 0.078 | 196 to 197 | 0.0058 µM | 
O=C(Nc1ccc(OCCCN2CCOCC2)c2ccccc12)c1cc(F)cc(N2CCCCC2)c1 [Compound B161, 3-Fluoro-N-[4-(3-morpholin-4-yl-propoxy)-naphthalen-1-yl]-5-piperidin-1-yl-benzamide] | > 10 | 70 to 72 | 1.1 µM | 84
CN(C)C1CCN(c2nccc(Oc3ccc(NC(=O)c4cc(F)cc(N5CCCCC5)c4)c4ccccc34)n2)C1 (centres unmarked) [Compound B420, N-[4-({2-[3-(Dimethylamino)pyrrolidin-1-yl]pyrimidin-4-yl}oxy)-1-naphthyl]-3-fluoro-5-piperidin-1-ylbenzamide] | 0.225 | 108 to 110 | 0.0152 µM | 
CCC1CCC(Oc2cc(F)cc(C(=O)Nc3ccc(OCc4ccncc4)c4ccccc34)c2)CC1 (centres unmarked) [Compound B228, 3-[(4-Ethylcyclohexyl)oxy]-5-fluoro-N-[4-(pyridin-4-ylmethoxy)-1-naphthyl]benzamide] |  | 93 to 95 | > 10 µM | 
O=C(Nc1ccc(OCCN2CCOCC2)c2ccccc12)c1cc(F)cc(OC2CCOCC2)c1 [Compound B226, 3-Fluoro-N-[4-(2-morpholin-4-ylethoxy)-1-naphthyl]-5-(tetrahydro-2H-pyran-4-yloxy)benzamide] |  | 75 to 77 | 5.39 µM | 
O=C(Nc1ccc(OCCN2CCCC2=O)c2ccccc12)c1cc(F)cc(N2CCCCC2)c1 [Compound B181, 3-Fluoro-N-{4-[2-(2-oxopyrrolidin-1-yl)ethoxy]-1-naphthyl}-5-piperidin-1-ylbenzamide] |  | 161 to 162 | 2.35 µM | 
O=C(Nc1ccc(OCc2ccoc2)c2ccccc12)c1cc(F)cc(N2CCCCC2)c1 [Compound B180, 3-Fluoro-N-[4-(3-furylmethoxy)-1-naphthyl]-5-piperidin-1-ylbenzamide] |  | 152 to 153 | 4.04 µM | 
O=C(Nc1ccc(OCCN2CCCC2=O)c2ccccc12)c1cc(F)cc(N2CCOCC2)c1 [Compound B224, 3-Fluoro-5-morpholin-4-yl-N-{4-[2-(2-oxopyrrolidin-1-yl)ethoxy]-1-naphthyl}benzamide] |  | 172 to 173 | 6.55 µM | 
O=C(Nc1ccc(Oc2ccnc(N3CCCC3)n2)c2ccccc12)c1cc(F)cc(N2CCCCC2)c1 [Compound B377, 3-Fluoro-piperidin-1-yl-N-{4-[(2-pyrrolidin-1-ylpyrimidin-4-yl)oxy]-1-naphthyl}benzamide] | 0.515 | 111 to 113 |  | 
O=C(Nc1ccc(OCCCN2CCC3(CC2)OCCO3)c2ccccc12)c1cc(F)cc(N2CCCCC2)c1 [Compound B166, N-{4-[3-(1,4-Dioxa-8-aza-spiro[4.5]dec-8-yl)-propoxy]-naphthalen-1-yl}-3-fluoro-5-piperidin-1-yl-benzamide] |  | 70 to 72 | 4.81 µM | 
Cc1cc(C(=O)Nc2ccc(OCCN3CCOCC3)c3ccccc23)cc(N2CCCC2C)n1 (centres unmarked) [Compound B155, 2-Methyl-6-(2-methyl-pyrrolidin-yl)-N-[4-(2-morpholin-4-yl-ethoxy)-naphthalen-1-yl]-isonicotinamide] | 2.45 |  | 0.745 µM | 89
C[C@@H]1CN(CCOc2ccc(NC(=O)c3ccc(CN4CCOCC4)cc3)c3ccccc23)C[C@H](C)O1 [Compound B5] | > 10 |  | > 10 µM | 
CN(C)c1cccc(C(=O)Nc2ccc(OCCN3CCOCC3)c3ccccc23)c1 [Compound B33] | > 10 |  | 29.8 µM | 
CN(C)CC(C)(C)CNc1nccc(Oc2ccc(NC(=O)c3cc(F)cc(OC4CCCCC4)c3)c3ccccc23)n1 [Compound B313] | 0.0483 |  | 0.002 µM and 0.0022 µM | 
O=C(Nc1ccc(OCCN2CCCCC2)c2ccccc12)c1ccc(CN2CCOCC2)cc1 [Compound B2] | > 10 |  | > 10 µM | 

SMILES | IC50 [1] [µM] | melting point [°C] | IC50 (p38α) | inhibition at 10 µM (p38α) [%]
CC(C)Nc1nccc(Oc2ccc(NC(=O)c3cc(F)cc(N4CCCCC4)c3)c3ccccc23)n1 [Compound B396, 3-Fluoro-N-(4-{[2-(isopropylamino)pyrimidin-4-yl]oxy}-1-naphthyl)-5-piperidin-1-ylbenzamide] | 0.201 |  | 0.006 µM | 
O=C(Nc1ccc(OCCN2CCOCC2)c2ccccc12)c1cc(Cl)nc(N2CCOCC2)c1 [Compound B305] | 2.48 |  | 1.41 µM | 
Cc1ccc(N2CCOCC2)cc1C(=O)Nc1ccc(OCCN2CCOCC2)c2ccccc12 [Compound B39, 2-Methyl-5-morpholin-4-yl-N-[4-(2-morpholin-4-yl-ethoxy)-naphthalen-1-yl]-benzamide] | 2.76 |  | 2.46 µM | 
O=C(Nc1ccc(OCCN2CCOCC2)c2ccccc12)c1cc(F)cc(N2CCC3CCCCC3C2)c1 (centres unmarked) [Compound B213] | > 10 |  | > 10 µM | 
Cc1ccc(-c2cccc(C(=O)Nc3ccc(OCCN4CCOCC4)c4ccccc34)c2)c(C)c1 [Compound B299] | > 10 |  | > 10 µM | 
Cc1cc(C(=O)Nc2ccc(OCCN3CCOCC3)c3ccccc23)cc(N2CCCC(C)C2)n1 (centres unmarked) [Compound B153, 3,6′-Dimethyl-3,4,5,6-tetrahydro-2H-[1,2′]bipyridinyl-4′-carboxylic acid [4-(2-morpholin-4-yl-ethoxy)-naphthalen-1-yl]-amide] | 1.03 |  | 0.622 µM | 88
CC1CCN(c2cc(F)cc(C(=O)Nc3ccc(N4CCN(C(=O)OC(C)(C)C)CC4)c4ccccc34)c2)CC1 [Compound B192] | 4.72 |  | > 10 µM | 
O=C(Nc1ccc(OCCN2CCOCC2)c2ccccc12)c1cc(N2CCOCC2)ccc1Cl [Compound B41] | > 10 |  | > 10 µM | 
O=C(Nc1ccc(OCCN2CCOCC2)c2ccccc12)c1cccc(-c2cccc(Cl)c2Cl)c1 [Compound B282] | 4.77 |  | 3.67 µM | 
O=C(Nc1ccc(OCCN2CCOCC2)c2ccccc12)c1cccc(-c2ccc(F)cc2F)c1 [Compound B100] | 1.59 |  | 0.744 µM | 86
O=C(Nc1ccc(OCCN2CCOCC2)c2ccccc12)c1cccc(-c2ccccc2)c1 [Compound B84, Biphenyl-3-carboxylic acid [4-(2-morpholin-4-yl-ethoxy)-naphthalen-1-yl]-amide] | 2.03 |  | 0.451 µM | 88
CC(=O)N1CCN(c2nccc(Oc3ccc(NC(=O)c4cc(F)cc(N5CCOCC5)c4)c4ccccc34)n2)CC1 [Compound B354] | 0.217 |  | 0.0094 µM | 
Cc1cc(COc2ccc(NC(=O)c3cc(F)cc(N4CCC(C)CC4)c3)c3ccccc23)no1 [Compound B243] | > 10 |  | > 10 µM | 
CCOc1cccc(-c2cccc(C(=O)Nc3ccc(OCCN4CCOCC4)c4ccccc34)c2)c1 [Compound B286] | > 10 |  | > 10 µM | 
O=C(Nc1ccc(Oc2ccnc(N3CCC(CO)CC3)n2)c2ccccc12)c1cc(F)cc(N2CCCCC2)c1 [Compound B415, 3-Fluoro-N-[4-({2-[4-(hydroxymethyl)piperidin-1-yl]pyrimidin-4-yl}oxy)-1-naphthyl]-5-piperidin-1-ylbenzamide] | 0.162 |  | 0.0061 µM | 
CCOc1ccc(Cl)cc1-c1cccc(C(=O)Nc2ccc(OCCN3CCOCC3)c3ccccc23)c1 [Compound B301] | > 10 |  | > 10 µM | 
N#Cc1ccc(-c2cccc(C(=O)Nc3ccc(OCCN4CCOCC4)c4ccccc34)c2)cc1 [Compound B285] | 9.79 |  | > 10 µM | 
O=C(Nc1ccc(OCCN2CCOCC2)c2ccccc12)c1cc(Br)cc(I)c1 [Compound B27] | > 10 |  | > 100 µM | 
